Data on 1 compound can be found in patent US20050215531A1, “Use of edg receptor binding agents in cancer” (priority 2002, published 2005).

Each structure is given as a SMILES string. Where only a bound is given, the exact number is not on record here.

Data set [1] is described as follows: Acute toxicity p.o. in rats.
A further data set concerns ERK½ MAP kinases. Description: Western blot, activation of ERK½ MAP kinases in HUVEC. As to conditions: endothelial cells, 5 minute to 60 minute treatment. The data set is classed as cell-based, human. How it is done: (§1) Human umbilical vein endothelial cells (HUVEC) are cultured at 37° C. and 5% CO2 in medium M199 supplemented with 20% SCS (HyClone, Logan, Utah), 1 U/ml heparin, 50 μg/ml ECGS, 2 mM glutamine, 100 U/ml penicillin and 0.1 mg/ml streptomycin. Cells are used for experiments up to passage number 5. Short-starved HUVEC are obtained by starving with 1% SCS-containing M199 for 5 h. Recombinant human VEGF165 is obtained from PromoCell (Heidelberg, Germany). Phospho-specific ERK½, p3B kinase polyclonal antibodies, nonphospho ERK½ antibodies and LumiGLO chemiluminescent reagent are from New England BioLabs (Beverly, Mass.), polyclonal IKB antibodies from Santa Cruz Biotechnology (Santa Cruz, Calif.). Peroxidase-conjugated donkey anti-rabbit immunoglobulin G (IgG) and sheep anti-mouse IgG are purchased from Amersham LIFE SCIENCE (Amersham Place, England). lmmobilon-P transfer membranes are products of Millipore (Bedford, Mass.). S is obtained from Sigma Chemical Co.; S1P is from Biomol. Compound A-phosphate stock solution is prepared by the following protocol. Compound A-phosphate is dissolved in methanol tracing with concentrated HCl (0.5 mg Compound A-phosphate in 500 μl of methanol plus 2 μl of HCl). Solvent from the resulting solution is evaporated under vacuum and the residue obtained is redissolved (variant 1) in 0.1% of defatted BSA solution in sterile deionized water (500 μl) or (variant 2) in 0.5% Triton X-100 in deionized water. The resulting stock solutions (2.5 mM) are sonicated and stored at 4° C.
After various treatments, the cells are washed twice with cold PBS, lysed in 100 μl of Laemmli buffer, scraped and heated for 5 min at 95° C. Total cell lysates are separated by SDS-PAGE and transferred to Immobilon-P membrane. The membrane is blocked for 30 minutes with PBS containing 0.1% Tween-20 and 3% skim milk and incubated for 1 hour at RT with a primary antibody diluted in blocking buffer. The membrane obtained is washed three times for 5 minutes with PBS containing 0.1% Tween-20 and incubated with peroxidase-conjugated secondary antibody for 1 hour at RT. After a washing step, the membrane is incubated for 1 minute with ECL reagent and exposed to film as required. For reprobing with another antibody, the membrane is washed twice in PBS, stripped for 30 min at 55° C. with stripping buffer (62.5 mM Tris-HCL, pH 6.8, 2% SDS, 100 mM 2-mercaptoethanol) and washed three times for 5 minutes with PBS at RT. The membrane is stored wet wrapped in SaranWrap at 4° C. after each immunodetection.
Signal transduction via MAP idnases plays a key role in a variety of endothelial cell functions. Treatment of HUVEC with Compound A-phosphate at 0.5 μM may result in transient activation of ERK½ with a peak of phosphorylation/activation at 10 minutes and returning to baseline by 20 minutes (see e.g. FIG. 5). No activation of p38 kinase and JNK½ by Compound A-phosphate is detectable in HUVEC. […] To estimate the possible role of inflammatory/NFκB-dependent program in Compound A-phosphatestimulated bioresponses of endothelial cells, the membranes are reprobed with anti-IκB antibodies. IκB levels are not affected by Compound A-phosphate treatment.

Data set [2] is described as follows: Acute toxicity p.o. in monkeys.
A further data set has as its system HUVEC. As to the kind of experiment: In vitro angiogenesis (tube formation) assay on Matrigel. The data set is classed as cell-based, human. The method, then: as §1
Morphogenesis of endothelial cells into capillary-like structures on Growth Factor Reduced Matrigel Matrix (BD Bioscience) is performed according to the manufacture procedure. Briefly, HUVEC are trypsinized, resuspended in serum-free Ml 99 medium containing soybean trypsin inhibitor (1 mg/ml, Sigma). After centrifugation cells are resuspended in serum-free medium at a density 0.5×10^5 cells/ml, and cell suspension is seeded in 96-well cell culture plates (Costar, Corning Incorporated) precoated with 50 μl of Matrigel in the absence or presence of various stimuli: VEGF at 1.5 nM, S1P at 0.1-2 μM, S at 0.5-2 μM, Compound A at 0.5-2 μM, and Compound A-phosphate at 0.1-2 μM. Eight hours later, cells on Matrigel are fixed with 3% formaldehyde in PBS and kept at 4° C. Results are quantitated from images made with a Nikon Diaphot microscope equipped with a cooled CCD camera (Kappa GmbH, Gleichen, Germany) by direct counting of branching points on two microscopic fields from each well done in duplicates.
The effect of Compound A and Compound A-phosphate on morphogenic differentiation of endothelial cells is determined using an in vitro angiogenesis assay on Matrigel. Endothelial cell morphogenesis is a complex process that requires cell-extracellular matrix interactions, followed by matrix remodelling, stimulated migration, cell-cell interactions, and perivascular proteolysis. […] This may be interpreted as a possible involvement of EDG-1 (S1P1) receptor-mediated signaling events in Compound A-phosphate-stimulated bioresponses (see e.g. FIG. 3). […] Importantly, high concentrations of S and Compound A (2-5 μM) inhibited VEGF-triggered tube formation.

Data set [3] has as its system S1P- or VEGF-induced growth of vascularized tissue around the chamber. Description: Antiangiogenic activity, subcutaneous porous chamber (S1P or VEGF) in mice. The data set is classed as in vivo. As to conditions: once a day for 4 days; Compound A orally 0.3, 3, 30 or 50 mg/kg; Compound C enantiomers i.v. 2.5 mg/kg. The method, then: Porous chambers containing (I) sphingosine-1-phosphate (5 μM/chamber) or (ii) human VEGF (1 μg/chamber) in 0.5 ml of 0.8% w/v agar (containing heparin, 20 U/ml) are implanted subcutaneously in the flank of mice. S1P or VEGF induces the growth of vascularized tissue around the chamber. This response is dose-dependent and can be quantified by measuring the weight and blood content of the tissue. Mice are treated once a day (i) orally with Compound A (0.3, 3, 30 or 50 mg/kg) or (ii) intravenously with the R enantiomer of Compound C (2.5 mg/kg) or (iii) intravenously with the S enantiomer of Compound C (2.5 mg/kg) or (iv) orally or intravenously with vehicle (5% glucose, 10 ml/kg), starting 4-6 hours before implantation of the chambers and continuing for 4 days. The animals are sacrificed for measurement of the vascularized tissues 24 h after the last dose. The weight and blood content of the vascularized tissues around the chamber is determined. Animals treated with Compound A or with the R or S enantiomer of Compound C show reduced weight and/or blood content of the vascularized tissues compared to animals treated with vehicle alone.

The test system of another data set is tissue factor. Description: Clotting assay, tissue factor activity on HUVEC. The data set is classed as cell-based, human. How it is done:
as §1
Cells are seeded in 6-well plates at 80-90% confluency and grown overnight. Cells are scraped from the plates and analyzed for tissue factor activity according to the method as described in Clauss, M., J. Biol. Chem. 271,17629-17634 (1996), Mechtcheriakova, D., Blood 93,3811-3823 (1999). Briefly, after induction for 4 hours with VEGF (1.5 nM), TNF-α (100 U/ml), S (0.5-2 μM), S1P (0.5-2 μM), Compound A (0.5-2 μM), and Compound A-phosphate (0.5-2 μM), cells are washed twice and then scraped in 1 ml clotting buffer (12 mM sodium acetate, 7 mM diethylbarbitate and 130 mM sodium chloride; pH 7.4). 50 μl of resuspended cells are mixed with 50 μl of citrated plasma, and clotting times are determined after recalcfication with 50 μl of 20 mM CaCl2 solution at 37° C. TF-equivalents are determined by using a standard curve obtained from rabbit brain thromboplastin.
An important characteristic feature of both classical inflammatory stimulus TNF-α and the main angiogenic growth factor VEGF on endothellal cells is their potency to upregulate tissue factor. Compound A, Compound A-phosphate, S or S1P are tested whether they also do induce tissue factor on HUVEC. […] The data obtained together indicate that Compound A, Compound A-phosphate, S and S1P mechanistically work distinctly to anglogenic VEGF and inflammatory TNF-α.

On to `CCCCCCCCc1ccc(CCC(N)(CO)CO)cc1.Cl` [Compound A, 2-amino-2-[2-(4-octylphenyl)ethyl]propane-1 ,3-diol], for which the “acute LD60” value in data set [1] and in data set [2] was more than 10 mg/kg throughout. The MAP kinase activation entry in the data set with ERK½ MAP kinases is listed as “Neither Compound A nor S are able to induce MAP kinase activation”. Further, the “effect on capillary-like network formation” value in the data set on HUVEC (0.5-1 μM) was “weak, in comparison to Compound A-phosphate, but consistent enhancing effect”. Further, in the data set with HUVEC (0.5-1 μM, with VEGF), the “effect on VEGF-mediated remodelling” value was “does not attenuate”. The “effect on VEGF-triggered tube formation” value with HUVEC (high concentrations, 2-5 μM) was “inhibited”. The “weight and/or blood content of the vascularized tissues compared to vehicle” value in data set [3] is “reduced”. Further, the “effect on TNF-α-induced tissue factor” value in the data set with tissue factor (TNF-α 100 U/ml) is “not TNF-α-induced”. Besides, the “effect on VEGF-induced tissue factor” value in the data set with tissue factor (VEGF 1.5 nM) is “slightly enhance”. Further, in the data set on tissue factor (compound alone or in combinations, 0.5-2 μM, 4 hours), the tissue factor activity entry is “none of these compounds alone or in combinations may elevate tissue factor activity”.
